Measurements taken from US12036226B2, “Methods of treating subjects having diabetes with chronic kidney disease” (Poxel SA, priority 2018, dated 2024).
Values joined by “and” are separate entries in the source; they are usually repeats but may differ in a detail not shown here. Identical values can stand only once. Like-named read-outs stand apart in the source and are kept apart here.

Assay: Phase 1 study of pharmacokinetics and safety of imeglimin in subjects with renal impairment compared to normal renal function
Assay type: in vivo, human
Conditions: for AUC: read-out: AUC0-τ
Method: An open-label, parallel-group, multi-center, multiple oral dose study to investigate the pharmacokinetics of imeglimin in subjects with renal impairment compared to subjects with normal renal function was completed.
In this study, a total of 51 subjects received imeglimin at the daily dose of 1000 mg, administered either as 1000 mg QD (once a day) or 500 mg bid (twice a day) during 8 days. […] Twenty-four control subjects with normal renal function were matched to mild and moderate (10 receiving QD and 8 receiving bid regimen) and to severe (6 receiving bid regimen) renal impaired subjects. Measurement of the urine to plasma ratio of creatinine using 24 hours urine sampling was calculated (CLCrea).
Imeglimin was administered in the morning time during 8 consecutive days in the group of subjects receiving 1000 mg once a day and in the morning and evening time during 7 consecutive days followed by a morning administration of 500 mg in the morning time on Day 8 in the group of subjects receiving 500 mg twice a day. Morning administrations on Days 1 and 8 were performed on a fasted state, after a 10 hours overnight fasting and during 4 hours after imeglimin administration.
Inclusion Criteria: For subjects with normal renal functions: CLCrea>80 mL/min based on calculation using 24-hrs sampling on day −2. For subjects with impaired renal function: CLCrea 50 to 80 mL/min for subjects with mild renal impairment, 30 to <50 mL/min for subjects with moderate renal impairment, and <30 mL/min for subjects with severe renal impairment based on calculation using 24-hrs sampling on day −2.
Pharmacokinetic parameters included apparent volume of distribution during the terminal phase following extravascular administration (Vz/F), area under the curve of the plasma concentration as a function of time (AUC0-t), the maximum observed concentration (Cmax), the time to maximum concentration (tmax), the plasma half-life (t1/2), the total body clearance of drug from plasma following extravascular administration (CL/F), and other parameters.
The urinary excretion parameters of imeglimin in subjects with differing degrees of renal impairment following QD or bid oral doses of imeglimin on day 8 are summarized in Table 3 and Table 4. Parameters measured include amount of unchanged drug excreted in urine as a function of time (Ae0-t), renal clearance (CLR), and the amount of unchanged drug excreted in urine during one dosing interval (Ae0-τ), and the percentage of administered dose excreted in urine during one dosing interval (fe0-τ).
For the evaluation of safety and tolerability of multiple oral doses of 1000 mg imeglimin QD (i.e. a total dose of 8000 mg imeglimin) or 500 mg imeglimin BID (i.e. a total dose of 7500 mg imeglimin), laboratory tests (hematology, clinical chemistry, urinalysis), determination of vital signs, ECG recordings, questioning of AEs and physical examinations were performed. […] The incidence of AEs observed within the course of the study was low. Overall 31 out of 51 subjects reported 54 treatment emergent AEs. Of these, only 15 were judged as likely related to the study drug. The majority (39 AEs) were assessed as unlikely related. Based on these low incidence no clear differences between the dose regimens and between the renal impairment groups can be shown.

[1] = 500 mg bid oral, Day 8, CKD Stage 2 (mild renal impairment) (N = 4), geometric mean (CV %)
[2] = 500 mg bid oral, Day 8, CKD Stage 3 (moderate renal impairment) (N = 6), geometric mean (CV %)
[3] = 500 mg bid oral, Day 8, CKD Stage 4 (severe renal impairment) (N = 5), geometric mean (CV %)
[4] = 500 mg bid oral, Day 8, Part 1 CKD Stage 2 (mild renal impairment; N = 4), geometric mean
[5] = 500 mg bid oral, Day 8, Part 1 CKD Stage 3 (moderate renal impairment; N = 6), geometric mean
[6] = 500 mg bid oral, Day 8, Part 1 normal renal function (N = 8), geometric mean
[7] = 500 mg bid oral, Day 8, Part 2 CKD Stage 4 (severe renal impairment; N = 5), geometric mean
[8] = 500 mg bid oral, Day 8, Part 2 normal renal function (N = 6), geometric mean
[9] = 500 mg bid oral, Day 8, normal renal function (N = 6), geometric mean (CV %)
[10] = 500 mg bid oral, Day 8, normal renal function (N = 8), geometric mean (CV %)
[11] = 1000 mg QD or 500 mg bid over 8 days, all groups
[12] = 1000 mg QD oral, Day 8, CKD Stage 3 (moderate renal impairment) (N = 6), geometric mean
[13] = 1000 mg QD oral, Day 8, CKD stage 2 (mild renal impairment; N = 5), geometric mean
[14] = 1000 mg QD oral, Day 8, normal renal function (N = 10), geometric mean
[15] = human, plasma, po, 500 mg, 500 mg bid oral, Day 8, Part 1 CKD Stage 2 (mild renal impairment; N = 4), geometric mean
[16] = human, plasma, po, 500 mg, 500 mg bid oral, Day 8, Part 1 CKD Stage 3 (moderate renal impairment; N = 6), geometric mean

In the case of `C[C@H]1N=C(N(C)C)N=C(N)N1` [imeglimin, (6R)—N^2, N^2,6-trimethyl-3,6-dihydro-1,3,5-triazine-2,4-diamine], the Ae0-t [1] is reported as 404 (16.4) mg, the Ae0-τ [1] is reported as 215 (11.5) mg and the “feτ (fraction of dose excreted in urine, 12-hour dosing interval)” value [1] is reported as 43% and 42.9 (11.5) %. The Ae0-t [2] was 328 (22.6) mg, the Ae0-τ [2] was 199 (29.1) mg and the “feτ (fraction of dose excreted in urine, 12-hour dosing interval)” value [2] was 40% and 39.8 (29.1) %. For the same molecule, the Ae0-t [3] was 357 (25.5) mg, the Ae0-τ [3] was 209 (15.6) mg and the “feτ (fraction of dose excreted in urine, 12-hour dosing interval)” value [3] was 42% and 41.8 (15.6) %. It also gave a CL/F [4] of 754 mL/min, a Cpre [4] of 572 ng/mL and a CL/F [5] of 485 mL/min. It also gave a Cmin [5] of 808 ng/mL, a Cpre [5] of 996 ng/mL and a CL/F [6] of 1128 mL/min. The Cpre [6] was 254 ng/mL, the CL/F [7] was 336 mL/min and the Cmin [7] was 1211 ng/mL. The Cpre [7] was 1335 ng/mL, the CL/F [8] was 1195 mL/min and the Cmin [8] was 169 ng/mL. The Cpre [8] was 209 ng/mL, the Ae0-t [9] was 298 (30.6) mg and the Ae0-τ [9] was 229 (25.3) mg. The “feτ (fraction of dose excreted in urine, 12-hour dosing interval)” value [9] was 45.9 (25.3) %, the Ae0-t [10] was 307 (37.7) mg and the Ae0-τ [10] was 222 (22.6) mg. The “feτ (fraction of dose excreted in urine, 12-hour dosing interval)” value [10] was 44.4 (22.6) %, the “number of treatment emergent AEs” value [11] was 54 and the “subjects reporting treatment emergent AEs” value [11] was 31 out of 51 subjects. For the same molecule, the “Ae0-t (unchanged drug excreted in urine)” value [12] was 453 mg, the Ae0-τ [12] was 345 mg and the CL/F [12] was 573 mL/min. For the same molecule, the Cpre [12] was 382 ng/mL, the “feτ (percentage of dose excreted in urine during one dosing interval)” value [12] was 34.5% and the CL/F [13] was 828 mL/min. For the same molecule, the Cpre [13] was 181 ng/mL, the “Ae0-t (unchanged drug excreted in urine)” value [14] was 460 mg and the Ae0-τ [14] was 386 mg. It also gave a CL/F [14] of 1082 mL/min, a Cav [14] of 642 ng/mL and a Cpre [14] of 136 ng/mL. For the same molecule, the “feτ (percentage of dose excreted in urine during one dosing interval)” value [14] was 38.6%, the “QRS-, QT intervals and corrected QTc-intervals (Bazett, Fridericia)” value (ECG recordings) was “did not reveal any relevant changes” and the vital signs (following the administration of imeglimin) was “did not show any clinically relevant changes”. The clinical laboratory parameters (human, in vivo) was “no significant abnormality observed”, the half-life (human, plasma, oral, across groups) was 13 to 26 h and the Tmax (human, plasma, oral, post-dose, across renal function groups and time, read-out: Median Tmax) was 3.5 to 5 h. The Cmax [15] was 1320 ng/mL, the half-life [15] was 26.1 h and the AUC [15] was 11100 ng·h/mL. The concentration at 8 day (human, plasma, po, 500 mg, 500 mg bid oral, Day 8, Part 1 CKD Stage 2 (mild renal impairment; N = 4), geometric mean, read-out: Cav) was 921 ng/mL, the concentration at 8 day (human, plasma, po, 500 mg, 500 mg bid oral, Day 8, Part 1 CKD Stage 2 (mild renal impairment; N = 4), geometric mean, read-out: Cmin) was 459 ng/mL and the Vd/F (human, plasma, po, 500 mg, 500 mg bid oral, Day 8, Part 1 CKD Stage 2 (mild renal impairment; N = 4), geometric mean, read-out: Vz/F) was 1700 L. For the same molecule, the Tmax (human, plasma, po, 500 mg, 500 mg bid oral, Day 8, Part 1 CKD Stage 2 (mild renal impairment; N = 4), median, read-out: tmax) was 4 h, the Cmax [16] was 2000 ng/mL and the half-life [16] was 21.9 h. For the same molecule, the AUC [16] was 17200 ng·h/mL.
